In patent US11834434B2, “Substituted 2-heteroaryloxypyridines and salts thereof and their use as herbicidal agents” (Bayer Aktiengesellschaft, priority 2018, dated 2023):

What was measured:
Type in all cases: in vivo
[1] = tested on: Amaranthus retroflexus (AMARE); assay: Post-emergence herbicidal action against Amaranthus retroflexus; conditions: 1280 g/ha; rated visually after about 3 weeks vs untreated controls; 100% = plants have died, 0% = like control plants
Procedure: (§1) Seeds of mono- and dicotyledonous weed plants were placed in plastic pots in sandy loam soil (doubly sown with in each case one species of mono- or dicotyledonous weed plants per pot), covered with soil and cultivated in a greenhouse under controlled growth conditions. 2 to 3 weeks after sowing, the test plants were treated at the one-leaf stage. The compounds of the invention, formulated in the form of wettable powders (WP) or as emulsion concentrates (EC), were applied onto the green parts of the plants as aqueous suspension or emulsion with addition of 0.5% additive at a water application rate of 600 liters per hectare (converted). After the test plants had been kept in the greenhouse under optimum growth conditions for about 3 weeks, the activity of the preparations was rated visually in comparison to untreated controls. For example, 100% activity=the plants have died, 0% activity=like control plants. Tables B1 to B8 below show the effects of selected compounds of the general formula (I) according to Table 1 on various harmful plants and an application rate corresponding to 1280 g/ha, which were obtained by the experimental procedure mentioned above.

Poa annua (POAAN) [2] = assay: Pre-emergence herbicidal action against Poa annua; conditions: 1280 g/ha; scored visually after about 3 weeks vs untreated controls; 100% = plants have died, 0% = like control plants
From the text: (§2) Seeds of mono- and dicotyledonous weed plants were placed in plastic pots in sandy loam soil (doubly sown with in each case one species of mono- or dicotyledonous weed plants per pot) and covered with soil. The compounds of the invention, formulated in the form of wettable powders (WP) or as emulsion concentrates (EC), were then applied onto the surface of the covering soil as aqueous suspension or emulsion with addition of 0.5% additive at a water application rate of 600 liters per hectare (converted). After the treatment, the pots were placed in a greenhouse and kept under good growth conditions for the test plants. After about 3 weeks, the effect of the preparations was scored visually in comparison with untreated controls as percentages. For example, 100% activity=the plants have died, 0% activity=like control plants. Tables C1 to C8 below show the effects of selected compounds of the general formula (I) according to Table 1 on various harmful plants and an application rate corresponding to 1280 g/ha, which were obtained by the experimental procedure mentioned above.

Setaria viridis (SETVI) = assay: Pre-emergence herbicidal action against Setaria viridis; conditions: 1280 g/ha; scored visually after about 3 weeks vs untreated controls; 100% = plants have died, 0% = like control plants
From the text: as §2

[3] = tested on: Amaranthus retroflexus (AMARE); assay: Pre-emergence herbicidal action against Amaranthus retroflexus; conditions: 1280 g/ha; scored visually after about 3 weeks vs untreated controls; 100% = plants have died, 0% = like control plants
From the text: as §2

[4] = tested on: Matricaria inodora (MATIN); assay: Pre-emergence herbicidal action against Matricaria inodora; conditions: 1280 g/ha; scored visually after about 3 weeks vs untreated controls; 100% = plants have died, 0% = like control plants
From the text: as §2

Stellaria media (STEME) [5] = assay: Pre-emergence herbicidal action against Stellaria media; conditions: 1280 g/ha; scored visually after about 3 weeks vs untreated controls; 100% = plants have died, 0% = like control plants
From the text: as §2

[6] = tested on: Abutilon theophrasti (ABUTH); assay: Post-emergence herbicidal action against Abutilon theophrasti; conditions: 1280 g/ha; rated visually after about 3 weeks vs untreated controls; 100% = plants have died, 0% = like control plants
Procedure: as §1

Stellaria media (STEME) [7] = assay: Post-emergence herbicidal action against Stellaria media; conditions: 1280 g/ha; rated visually after about 3 weeks vs untreated controls; 100% = plants have died, 0% = like control plants
Procedure: as §1

Poa annua (POAAN) [8] = assay: Post-emergence herbicidal action against Poa annua; conditions: 1280 g/ha; rated visually after about 3 weeks vs untreated controls; 100% = plants have died, 0% = like control plants
Procedure: as §1

Lolium rigidum (LOLRI) = assay: Pre-emergence herbicidal action against Lolium rigidum; conditions: 1280 g/ha; scored visually after about 3 weeks vs untreated controls; 100% = plants have died, 0% = like control plants
From the text: as §2

[9] = tested on: Echinochloa crus-galli (ECHCG); assay: Pre-emergence herbicidal action against Echinochloa crus-galli; conditions: 1280 g/ha; scored visually after about 3 weeks vs untreated controls; 100% = plants have died, 0% = like control plants
From the text: as §2

[10] = tested on: Abutilon theophrasti (ABUTH); assay: Pre-emergence herbicidal action against Abutilon theophrasti; conditions: 1280 g/ha; scored visually after about 3 weeks vs untreated controls; 100% = plants have died, 0% = like control plants
From the text: as §2

| SMILES | Post-emergence action against Amaranthus retroflexus (AMARE) [1] | Pre-emergence action against Poa annua (POAAN) (Poa annua (POAAN) [2]) | Pre-emergence action against Setaria viridis (SETVI) (Setaria viridis (SETVI)) | Pre-emergence action against Amaranthus retroflexus (AMARE) [3] | Pre-emergence action against Matricaria inodora (MATIN) [4] | Pre-emergence action against Stellaria media (STEME) (Stellaria media (STEME) [5]) | Post-emergence action against Abutilon theophrasti (ABUTH) [6] | Post-emergence action against Stellaria media (STEME) (Stellaria media (STEME) [7]) | Post-emergence action against Poa annua (POAAN) (Poa annua (POAAN) [8]) | Pre-emergence action against Lolium rigidum (LOLRI) (Lolium rigidum (LOLRI)) | Pre-emergence action against Echinochloa crus-galli (ECHCG) [9] | Pre-emergence action against Abutilon theophrasti (ABUTH) [10] |
| --- | --- | --- | --- | --- | --- | --- | --- | --- | --- | --- | --- | --- |
| Fc1ccc(Sc2cccnc2Oc2ncc(F)cn2)cc1 [Example I-154] | 100% | 100% | 100% | 100% | 100% | 100% |  |  |  |  |  |  |
| Fc1cnc(Oc2ncccc2Sc2ccc(F)cc2F)nc1 [Example I-156] | 100% | 100% | 90% | 100% | 90% | 100% | 100% | 100% |  |  |  |  |
| Cc1ccc(Cc2ccc(F)cc2F)c(Oc2ncc(Cl)cn2)n1 [Example I-400] |  | 100% | 100% | 90% | 90% | 100% |  |  |  |  |  |  |
| Cc1ccc(Cc2ccc(C)nc2Oc2ncc(Cl)cn2)cc1 [Example I-405] |  |  | 100% | 100% |  | 100% |  |  |  |  |  |  |
| COc1cc(Cc2ccc(C)nc2Oc2ncc(Cl)cn2)ccc1F [Example I-406] | 90% | 100% | 100% | 90% | 100% | 100% |  | 90% | 90% | 90% |  |  |
| Cc1ccc(Cc2ccccc2)c(Oc2ncc(F)cn2)n1 [Example I-430] | 90% | 100% | 100% | 100% | 100% | 100% |  | 100% | 90% | 90% | 100% | 100% |
| Cc1ccc(Cc2ccc(C)nc2Oc2ncc(F)cn2)cc1 [Example I-438] | 90% |  |  |  | 100% | 100% |  | 90% |  |  |  | 90% |
| COc1cc(Cc2ccc(C)nc2Oc2ncc(F)cn2)ccc1F [Example I-439] |  | 100% | 100% | 90% |  | 100% |  | 90% |  |  | 100% | 100% |
| Cc1ccc(Cc2ccccc2)c(Oc2ncccn2)n1 [Example I-441] | 100% | 100% | 100% | 100% | 100% | 100% |  | 100% |  | 90% | 100% | 100% |
| Cc1ccc(Cc2ccc(C)nc2Oc2ncccn2)cc1 [Example I-449] |  | 90% |  |  |  | 100% |  |  |  |  |  |  |
| COc1cc(Cc2ccc(C)nc2Oc2ncccn2)ccc1F [Example I-450] | 90% | 100% | 100% | 90% | 100% | 100% |  |  |  | 90% | 90% | 100% |
| COc1cc(Cc2ccc(C)nc2Oc2ncc(C(F)(F)F)cn2)ccc1F [Example I-465] | 90% | 100% | 90% | 100% |  | 90% |  |  |  | 90% |  |  |
| COc1cc(Oc2ccc(C)nc2Oc2ncc(Cl)cn2)ccc1F [Example I-509] | 100% | 100% | 90% | 100% | 100% | 100% |  |  |  | 90% |  | 100% |
| COc1cc(Oc2ccc(C)nc2Oc2ncc(F)cn2)ccc1F [Example I-520] | 100% | 100% | 90% | 100% | 100% | 100% | 90% |  |  | 100% |  | 90% |
| Cc1ccc(Oc2ccccc2)c(Oc2ncccn2)n1 [Example I-522] | 100% | 100% | 100% | 90% | 90% | 100% |  | 100% | 90% | 90% | 100% | 100% |
| Cc1ccc(Oc2ccc(Cl)cc2)c(Oc2ncccn2)n1 [Example I-526] |  | 100% | 100% | 100% | 100% | 100% |  |  | 100% |  | 100% | 100% |
| COc1cc(Oc2ccc(C)nc2Oc2ncccn2)ccc1F [Example I-531] |  | 100% | 100% | 100% | 100% | 100% |  |  |  |  | 90% | 100% |
| Cc1ccc(Oc2ccccc2)c(Oc2ncc(C(F)(F)F)cn2)n1 [Example I-533, 2-[(6-Methyl-3-phenoxy-2-pyridyl)oxy]-5-(trifluoromethyl)pyrimidine] |  | 90% | 90% |  |  | 100% |  |  | 100% |  | 90% |  |
| Cc1ccc(Oc2ccc(Cl)cc2)c(Oc2ncc(C(F)(F)F)cn2)n1 [Example I-534] |  |  | 90% | 90% | 90% | 100% |  |  |  | 100% |  |  |
